Assay results from patent US10239873B2, “7-azaindole or 4,7-diazaindole derivatives as IKKϵ epsilon and TBK1 inhibitor and pharmaceutical composition comprising same” (GREEN CROSS CORPORATION, priority 2015, dated 2019).

Experiments:
TBK1 = molecular target: T1, TBK1 (Homo sapiens, UniProt Q9UHD2); test: ADP-Glo Kinase Assay, inhibition activity on TBK1; type: biochemical
T1 construct: purchased Promega (Invitrogen is also named in the same bracket) V4158; PR8031B; V3991 (not assigned to the two kinases)
T1 sequence (Q9UHD2 1-729): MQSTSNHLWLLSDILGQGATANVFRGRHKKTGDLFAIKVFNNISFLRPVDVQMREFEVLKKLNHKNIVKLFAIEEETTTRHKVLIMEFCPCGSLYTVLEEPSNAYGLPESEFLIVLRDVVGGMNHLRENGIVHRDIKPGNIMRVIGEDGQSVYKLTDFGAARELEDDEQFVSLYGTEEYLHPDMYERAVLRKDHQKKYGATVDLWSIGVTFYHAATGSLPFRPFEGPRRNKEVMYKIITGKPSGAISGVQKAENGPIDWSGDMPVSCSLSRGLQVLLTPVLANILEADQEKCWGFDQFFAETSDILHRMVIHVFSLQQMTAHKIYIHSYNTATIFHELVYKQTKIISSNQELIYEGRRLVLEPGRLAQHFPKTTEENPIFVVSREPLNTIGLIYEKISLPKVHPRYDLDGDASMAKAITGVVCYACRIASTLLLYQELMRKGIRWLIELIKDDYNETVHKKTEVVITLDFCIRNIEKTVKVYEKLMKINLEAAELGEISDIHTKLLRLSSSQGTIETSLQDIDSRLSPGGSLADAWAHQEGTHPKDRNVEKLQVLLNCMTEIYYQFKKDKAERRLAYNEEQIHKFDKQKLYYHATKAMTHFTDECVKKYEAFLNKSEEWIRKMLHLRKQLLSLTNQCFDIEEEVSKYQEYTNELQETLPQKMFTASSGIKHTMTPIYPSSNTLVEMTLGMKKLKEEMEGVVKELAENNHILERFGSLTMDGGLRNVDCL
How it was run: (§1)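 In 40 mM Tris pH 7.5 with 20 mM MgCl2 and 0.1 mg/mL BSA, each enzyme (IKKε or TBK1 kinase system) was run according to the manufacturer's protocol. ADP formed was detected by ADP-Glo luminescence.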

IKKε = molecular target: T2, IKKε (Homo sapiens, UniProt Q14164); test: ADP-Glo Kinase Assay, inhibition activity on IKKε; type: biochemical
T2 construct: purchased Promega and/or Invitrogen V4158; PR8031B; V3991 (not assigned to the two kinases)
T2 sequence (Q14164 1-716): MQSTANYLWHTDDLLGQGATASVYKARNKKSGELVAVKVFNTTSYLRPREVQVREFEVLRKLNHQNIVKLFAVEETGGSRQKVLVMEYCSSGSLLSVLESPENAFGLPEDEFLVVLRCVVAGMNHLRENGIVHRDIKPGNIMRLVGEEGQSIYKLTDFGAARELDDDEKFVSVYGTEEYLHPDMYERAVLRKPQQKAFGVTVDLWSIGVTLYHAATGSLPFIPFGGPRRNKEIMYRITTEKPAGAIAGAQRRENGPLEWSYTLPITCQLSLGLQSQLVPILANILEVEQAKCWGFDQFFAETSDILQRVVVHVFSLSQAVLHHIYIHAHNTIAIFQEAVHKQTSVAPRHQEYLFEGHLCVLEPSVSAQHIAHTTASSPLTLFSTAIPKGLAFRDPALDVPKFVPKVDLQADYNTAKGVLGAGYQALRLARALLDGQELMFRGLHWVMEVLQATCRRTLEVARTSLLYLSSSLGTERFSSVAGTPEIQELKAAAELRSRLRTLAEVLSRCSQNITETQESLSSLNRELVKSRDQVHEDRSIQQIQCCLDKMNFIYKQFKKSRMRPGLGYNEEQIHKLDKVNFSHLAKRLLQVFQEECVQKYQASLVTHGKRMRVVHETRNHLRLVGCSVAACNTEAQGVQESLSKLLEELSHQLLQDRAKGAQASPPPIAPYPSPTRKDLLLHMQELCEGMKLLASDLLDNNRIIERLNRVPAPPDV
How it was run: as §1

Structure (SMILES): CC(C)NC(=O)N1CC=C(c2c[nH]c3ncc(-c4ccc(NC5CCOCC5)cc4)cc23)CC1 [Example 37, N-isopropyl-4-(5-(4-((tetrahydro-2H-pyran-4-yl)amino)phenyl)-1H-pyrrolo[2,3-b]pyridin-3-yl)-3,6-dihydropyridine-1(2H)-carboxamide]
- IC50 (TBK1): 10 nM
- IC50 (IKKε): 13 nM

Structure (SMILES): CC1C=C(c2c[nH]c3ncc(-c4ccc(CN5CCOCC5)s4)cc23)CCN1C(=O)NC1CC1 (stereo not drawn) [Example 97, N-cyclopropyl-2-methyl-4-(5-(5-(morpholinomethyl)thiophen-2-yl)-1H-pyrrolo[2,3-b]pyridin-3-yl)-5,6-dihydropyridine-1(2H)-carboxamide]
- IC50 (TBK1): 1.7 nM
- IC50 (IKKε): 2.5 nM

Structure (SMILES): CCC1CC(c2c[nH]c3ncc(-c4ccc(CN5CCOCC5)s4)cc23)=CCN1C(=O)NC(C)C (stereo not drawn) [Example 110, 6-Ethyl-N-isopropyl-4-(5-(5-(morpholinomethyl)thiophen-2-yl)-1H-pyrrolo[2,3-b]pyridin-3-yl)-5,6-dihydropyridine-1(2H)-carboxamide]
- IC50 (TBK1): 31 nM
- IC50 (IKKε): 43 nM

Structure (SMILES): COc1ccc(-c2cnc3[nH]cc(C4=CCN(C)CC4)c3c2)cc1OC [Example 2, 5-(3,4-Dimethoxyphenyl)-3-(1-methyl-1,2,3,6-tetrahydropyridin-4-yl)-1H-pyrrolo[2,3-b]pyridine]
- IC50 (TBK1): 9040 nM
- IC50 (IKKε): > 10000 nM

Structure (SMILES): CC(C)NC(=O)N1CC=C(c2c[nH]c3ncc(-c4ccc(C(=O)N5CCN(C)CC5)cc4)cc23)CC1 [Example 32, N-isopropyl-4-(5-(4-(4-methylpiperazine-1-carbonyl)phenyl)-1H-pyrrolo[2,3-b]pyridin-3-yl)-5,6-dihydropyridine-1(2H)-carboxamide]
- IC50 (TBK1): 7 nM
- IC50 (IKKε): 13 nM

Structure (SMILES): CC(C)NC(=O)N1CC=C(c2c[nH]c3ncc(-c4ccccc4)cc23)CC1 [Example 11, N-isopropyl-4-(5-phenyl-1H-pyrrolo[2,3-b]pyridin-3-yl)-5,6-dihydropyridine-1(2H)-carboxamide]
- IC50 (TBK1): 24 nM
- IC50 (IKKε): 8200 nM

Structure (SMILES): CC(C)NC(=O)N1CC=C(c2c[nH]c3ncc(-c4ccc(CN5CCN(C)CC5)s4)cc23)C(C)C1 (stereo not drawn) [Example 125, N-isopropyl-5-methyl-4-(5-(5-((4-methylpiperazin-1-yl)methyl)thiophen-2-yl)-1H-pyrrolo[2,3-b]pyridin-3-yl)-5,6-dihydropyridine-1(2H)-carboxamide]
- IC50 (TBK1): 3.6 nM
- IC50 (IKKε): 27 nM

Structure (SMILES): CC(C)NC(=O)N1CC=C(c2c[nH]c3ncc(-c4cccc(C(=O)N5CCN(C)CC5)c4)cc23)CC1 [Example 31, N-isopropyl-4-(5-(3-(4-methylpiperazine-1-carbonyl)phenyl)-1H-pyrrolo[2,3-b]pyridin-3-yl)-5,6-dihydropyridine-1(2H)-carboxamide]
- IC50 (TBK1): 15 nM
- IC50 (IKKε): 46 nM

Structure (SMILES): O=C(c1cccs1)N1CC=C(c2c[nH]c3ncc(-c4ccc5[nH]ncc5c4)cc23)CC1 [Example 204, (4-(5-(1H-indazol-5-yl)-1H-pyrrolo[2,3-b]pyridin-3-yl)-5,6-dihydropyridin-1(2H)-yl)(thiophen-2-yl)methanone]
- IC50 (TBK1): 57 nM
- IC50 (IKKε): 280 nM

Structure (SMILES): CC(C)NC(=O)N1CC=C(c2c[nH]c3ncc(-c4ccc(N)c5c4CNC5=O)cc23)CC1 [Example 39, 4-(5-(7-Amino-1-oxoisoindolidin-4-yl)-1H-pyrrolo[2,3-b]pyridin-3-yl)-N-isopropyl-3,6-dihydropyridine-1(2H)-carboxamide]
- IC50 (TBK1): 35 nM
- IC50 (IKKε): 35 nM

Structure (SMILES): CC1C=C(c2c[nH]c3ncc(-c4ccc(CN5CCN(C)CC5)s4)cc23)CCN1C(=O)NC1CCC1 (stereo not drawn) [Example 100, N-cyclobutyl-2-methyl-4-(5-(5-((4-methylpiperazin-1-yl)methyl)thiophen-2-yl)-1H-pyrrolo[2,3-b]pyridin-3-yl)-5,6-dihydropyridine-1(2H)-carboxamide]
- IC50 (TBK1): 5.6 nM
- IC50 (IKKε): 35 nM

Structure (SMILES): CC(C)NC(=O)N1CC=C(c2c[nH]c3ncc(-c4ccc(CN5CCCC5)o4)cc23)CC1 [Example 27, N-isopropyl-4-(5-(5-(pyrrolidin-1-ylmethyl)furan-2-yl)-1H-pyrrolo[2,3-b]pyridin-3-yl)-5,6-dihydropyridine-1(2H)-carboxamide]
- IC50 (TBK1): 570 nM
- IC50 (IKKε): 1980 nM

Structure (SMILES): CCN1CC=C(c2c[nH]c3ncc(-c4ccc(OC)c(OC)c4)cc23)CC1 [Example 3, 5-(3,4-Dimethoxyphenyl)-3-(1-ethyl-1,2,3,6-tetrahydropyridin-4-yl)-1H-pyrrolo[2,3-b]pyridine]
- IC50 (TBK1): 5930 nM
- IC50 (IKKε): > 10000 nM

Structure (SMILES): CC1C=C(c2c[nH]c3ncc(-c4ccc(CN5CCN(C)CC5)s4)cc23)CCN1C(=O)NC1CCCC1 (stereo not drawn) [Example 102, N-cyclopentyl-2-methyl-4-(5-(5-((4-methylpiperazin-1-yl)methyl)thiophen-2-yl)-1H-pyrrolo[2,3-b]pyridin-3-yl)-5,6-dihydropyridine-1(2H)-carboxamide]
- IC50 (TBK1): 4.4 nM
- IC50 (IKKε): 13 nM

Structure (SMILES): CC1CC(c2c[nH]c3ncc(-c4ccc(CN5CCN(C)CC5)s4)cc23)=CCN1C(=O)NC1CCCC1 (stereo not drawn) [Example 103, N-cyclopentyl-6-methyl-4-(5-(5-((4-methylpiperazin-1-yl)methyl)thiophen-2-yl)-1H-pyrrolo[2,3-b]pyridin-3-yl)-5,6-dihydropyridine-1(2H)-carboxamide]
- IC50 (TBK1): 58 nM
- IC50 (IKKε): 150 nM

Structure (SMILES): CC1C=C(c2c[nH]c3ncc(-c4ccc(C(=O)N5CCN(C)CC5)cc4)cc23)CCN1C(=O)NC1CC1 (stereo not drawn) [Example 94, N-cyclopropyl-2-methyl-4-(5-(4-(4-methylpiperazine-1-carbonyl)phenyl)-1H-pyrrolo[2,3-b]pyridin-3-yl)-5,6-dihydropyridine-1(2H)-carboxamide]
- IC50 (TBK1): 3.9 nM
- IC50 (IKKε): 10 nM

Structure (SMILES): CC1C=C(c2c[nH]c3ncc(-c4ccc(CN5CCOCC5)s4)cc23)CC(C)N1C(=O)NC1CCCC1 (stereo not drawn) [Example 116, N-cyclopentyl-2,6-dimethyl-4-(5-(5-(morpholinomethyl)thiophen-2-yl)-1H-pyrrolo[2,3-b]pyridin-3-yl)-3,6-dihydropyridine-1(2H)-carboxamide]
- IC50 (TBK1): 1280 nM
- IC50 (IKKε): 1520 nM

Structure (SMILES): COc1cccc(-c2cnc3[nH]cc(C4=CCN(C(=O)NC(C)C)CC4)c3c2)c1 [Example 14, N-isopropyl-4-(5-(3-methoxyphenyl)-1H-pyrrolo[2,3-b]pyridin-3-yl)-3,6-dihydropyridine-1(2H)-carboxamide]
- IC50 (TBK1): 15 nM
- IC50 (IKKε): > 10000 nM

Structure (SMILES): CC(C)NC(=O)N1CCC(c2c[nH]c3ncc(-c4ccc(CN5CCOCC5)s4)cc23)=CC1(C)C [Example 114, N-isopropyl-2,2-dimethyl-4-(5-(5-(morpholinomethyl)thiophen-2-yl)-1H-pyrrolo[2,3-b]pyridin-3-yl)-5,6-dihydropyridine-1(2H)-carboxamide]
- IC50 (TBK1): 5.9 nM
- IC50 (IKKε): 8 nM

Structure (SMILES): CC1CN(C(=O)NC2CCCC2)CC=C1c1c[nH]c2ncc(-c3cccc(S(N)(=O)=O)c3)cc12 (stereo not drawn) [Example 123, N-cyclopentyl-5-methyl-4-(5-(3-sulfamoylphenyl)-1H-pyrrolo[2,3-b]pyridin-3-yl)-5,6-dihydropyridine-1(2H)-carboxamide]
- IC50 (TBK1): 28 nM
- IC50 (IKKε): 80 nM

Structure (SMILES): CC1CN(C(=O)NC2CCCC2)CC=C1c1c[nH]c2ncc(-c3ccc(CN4CCOCC4)s3)cc12 (stereo not drawn) [Example 127, N-cyclopentyl-5-methyl-4-(5-(5-(morpholinomethyl)thiophen-2-yl)-1H-pyrrolo[2,3-b]pyridin-3-yl)-5,6-dihydropyridine-1(2H)-carboxamide]
- IC50 (TBK1): 4 nM
- IC50 (IKKε): 100 nM
